Data published in ChEMBL document CHEMBL1201862, “PubChem BioAssay data set” (2004).
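Test compounds were applied to cells in 96-well plates for 48 hours at 5 doses. GI50 marks 50% less growth.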 Active and inactive are the calls of the source. Cut-off read from the data, not from the text of the source: active = GI50 up to about 1.1 µM and inactive = higher.

Legend:
Test in all cases: NCI-60 cell line screen, 48 h
SF-268 = test system: SF-268
SK-MEL-28 = test system: SK-MEL-28
IGROV-1 = test system: IGROV-1
A498 = test system: A498
SNB-19 = test system: SNB-19
OVCAR-8 = test system: OVCAR-8
DU-145 = test system: DU-145
SK-MEL-2 = test system: SK-MEL-2
HCC 2998 = test system: HCC 2998
HCT-116 = test system: HCT-116
SN12C = test system: SN12C
CAKI-1 = test system: CAKI-1
SNB-78 = test system: SNB-78
LOX IMVI = test system: LOX IMVI
MDA-MB-435 = test system: MDA-MB-435
EKVX = test system: EKVX
TK-10 = test system: TK-10
KM12 = test system: KM12
SNB-75 = test system: SNB-75
MCF7 = test system: MCF7

Measured: GI50

C1COCCN1.S=C(S)N1CCOCC1
inactive: SF-268 9.68 µM | SK-MEL-28 10.3 µM | IGROV-1 6.76 µM | A498 24.9 µM | SNB-19 > 100 µM | OVCAR-8 > 100 µM | DU-145 > 100 µM | SK-MEL-2 36.4 µM | HCC 2998 2.59 µM | HCT-116 2.12 µM | SN12C > 100 µM | CAKI-1 5.51 µM | SNB-78 41.5 µM | LOX IMVI 18.3 µM | MDA-MB-435 > 100 µM | EKVX > 100 µM | TK-10 > 100 µM | KM12 20.1 µM | SNB-75 7.08 µM | MCF7 29.4 µM

COC1=C(NC(C)=O)C(=O)c2nc3n(c2C1=O)CCC3
inactive: SF-268 17.7 µM | SK-MEL-28 18.7 µM | IGROV-1 19.3 µM | A498 23.6 µM | SNB-19 26.7 µM | OVCAR-8 16.7 µM | DU-145 20.8 µM | SK-MEL-2 17.7 µM | HCC 2998 23.7 µM | HCT-116 15.7 µM | SN12C 17.9 µM | CAKI-1 18.3 µM | SNB-78 13 µM | LOX IMVI 16.1 µM | MDA-MB-435 3.64 µM | EKVX 19.5 µM | TK-10 30.3 µM | KM12 25.7 µM | SNB-75 17.6 µM | MCF7 23.1 µM

CC(=O)O[C@H]1CC[C@@]2(C)C(=CC[C@@H]3C2CC[C@]2(C)C(=O)NC(=O)CC32)C1 (some centres not stated)
inactive: SF-268 > 100 µM | SK-MEL-28 53.5 µM | IGROV-1 > 100 µM | A498 > 100 µM | SNB-19 > 100 µM | OVCAR-8 > 100 µM | SK-MEL-2 > 100 µM | HCC 2998 > 100 µM | HCT-116 > 100 µM | SN12C > 100 µM | CAKI-1 > 100 µM | SNB-78 > 100 µM | LOX IMVI 40.3 µM | EKVX > 100 µM | TK-10 > 100 µM | KM12 > 100 µM | SNB-75 > 100 µM
